The subject of assay [1] is spontaneously contracting colonies (transdifferentiated cardiomyocytes). Briefly: Calcium imaging and testing of chronotropic agents. It is filed as cell-based, mouse. The note with it: 1 μM isoproterenol or 10 μM carbachol; 10 minutes after addition. On the procedure:
Cells were loaded with Fluo-4-AM (5 μM, 30 min, 37° C.) (F14201, Invitrogen), and imaged with an Olympus Fluoview 1000 inverted confocal microscope with a 40× oil immersion lens (numerical aperture 1.3). Line scan imaging mode was used to measure spontaneous Ca2^+ transients at 37° C. Image processing and data analysis were performed as previously described (Ouyang, K. et al., J Biol Chem 280, 15898-902 (2005)). For drug testing, all measurements were repeated 10 minutes after the addition of isoproterenol (1 μM; Sigma) or Carbachol (10 μM; Sigma-Aldrich).

The test system of assay [2] is R1 ES cells. Briefly: Serum-free monolayer cardiac differentiation of ES cells, beating colonies. Format: cell-based, mouse. The note with it: early treatment window. As to the method: Having identified the first serum-free monolayer condition for cardiac differentiation of ES cells, we sought to test its efficacy as a platform to discover regulators of cardiomyogenesis. A collection of approximately 200 small molecules and growth factors reported to be influential in developmental processes were assembled. R1 ES cells were grown and plated for differentiation on Matrigel in 24-well plates using the media and growth factors described above. The screening collection was then added and removed from each well at specific time points in order to account for different developmental time windows. The collection was screened at days 0-2, 2-5, and 5-7.
(§1) Cells are plated at a density of 200,000 cells/well of a 6-well plate in 2.5 ml of ESGM. 6-well plates are coated overnight at 4° C. with 1 ml of Matrigel (BD Bioscience) diluted 50× from stock concentration. 24 hours after plating, or after sufficient colony size was achieved, cells are switched into chemically defined medium (CDM) and treated with 4 uM BIO (Calbiochem) and 20 ng/ml BMP-4 (R&D). CDM contains RPMI 1640, 0.5×N2, 1×B27 (without Vitamin A), 0.5× Glutamax, 0.55 mM beta-mercaptoethanol, 1× non-essential amino acids, 1× nucleosides. At Day 2, medium is changed, and again CDM containing 4 uM BIO with 20 ng/ml BMP-4 is added to the cells. At Day 5, cells are washed once with PBS and medium is changed to CDM containing 100 ng/ml Dkk-1 (R&D). At Day 7, medium is changed, and again CDM containing 100 ng/ml Dkk-1 is added to the cells. At Day 10, cells are trypsinized (0.05% trypsin) (Approximately 5 minutes at 37° C., or until cells begin to detach) and replated onto gelatin coated 6-well plates in CDM with no additional growth factors. By this time, the cells will have formed tight colonies that will be difficult to disrupt (Supplementary FIG. 2b). […] The trypsin is used primarily to detach the cells rather than to dissociate them to a single cell suspension. It is preferable for the colonies to remain intact. The trypsin is briefly quenched with MEF media, cells are centrifuged, and resuspended in CDM for plating. Medium is refreshed as needed to remove dead cells and debris (every 1 to 2 days).

The test system of assay [3] is R1 ES cells. Briefly: QRT-PCR of markers in differentiating ES cells. Format: cell-based, mouse. The note with it: treated day 0-2, harvested day 4.5. On the procedure:
To further analyze the mechanism of action of the cardiogenic effect seen with these molecules, QRT-PCR was carried out on cells treated from day 0-2 and harvested at day 4.5.
QRT-PCR was carried out to observe the induction of cardiomyogenesis at the transcript level. At day 5, when A83-01 treatment begins, the predominant state is that of a developed primitive streak type population that is yet to display robust expression of markers of cardiac precursors such as Nkx2.5, Isl-1, and c-kit.
Total RNA from each sample was prepared from 5×10^4 cells using RNeasy mini kit (Qiagen). Reverse transcription was carried out by using Reverse Transcription System (Promega) and PCR performed using PCR Super Mix (Invitrogen).

A further assay has as its system R1 mESCs. Briefly: Serum-free monolayer cardiac differentiation of ES cells, αMHC immunostaining at day 10. It is filed as cell-based, mouse.
From the text: While cellular differentiation is a fluid process, its study can be simplified by defining stages of differentiation. In order to identify conditions conducive to cardiomyocyte differentiation, we employed a matrix strategy in which cells were differentiated for 10 days encompassing 4 treatment windows (followed by a period of maturation in the final procedure). The stages identified for the current study were mesendoderm, mesoderm, cardiac precursor, early cardiomyocyte, and mature cardiomyocyte. Shown in FIG. 24 is a schematic representing the transition from ES cells to cardiomyocytes, including markers for each cell type defined and the treatments used to stimulate each transition.
We began by identifying a minimal serum-free condition in which approximately 1% of cells would express αMHC (alpha-myosin heavy chain) after 10 days of culture. Combinations of medium components and plate coatings were tested in parallel, with the most permissive and consistent condition being a modified chemically defined N2/B27 medium on Matrigel coated plates (see Methods). Prior to differentiation, ES cells were maintained in a pluripotent state on MEFs and with LIF. At day −1, the cells were trypsinized and replated on Matrigel coated plates in LIF supplemented medium, allowing for better cell survival and more robust initial colony formation. In one day, a sufficient colony size is achieved allowing survival in serum-free medium (FIG. 25).
From a literature search, we identified growth factors, cytokines and small molecules reported to influence cardiac differentiation, such as activators and inhibitors of BMP, TGF-β/Nodal, Hedgehog, Wnt, and Notch pathways and tested each for their ability to induce cardiomyogenesis at each time window. For example, to test Dkk-1 in the second window, cells were in basal medium for days 0-2, treated with Dkk-1 for days 2-5, then cultured in basal medium until day 10 before immunofluorescence scoring. Positive regulators of cardiac specification at each stage were therefore identified by their ability to induce alpha-myosin heavy chain (αMHC) expression at day 10, as assessed by immunostaining.
as §1
Cells were fixed in 4% paraformaldehyde (Sigma) for 15 minutes, and stained in 0.3% Triton (Sigma) containing 5% donkey serum (Jackson ImunoResearch). Antibodies were used at dilutions of MF20 [Developmental Studies Hybridoma Bank (DSHB)] […]

The subject of assay [4] is mouse embryonic fibroblasts (MEFs). Nature of the assay: Direct cardiac reprogramming of fibroblasts, contracting patch/colony counts. Format: cell-based. From the text:
Having successfully initiated the early cardiogenic program in MEFs, we next sought to induce robust activation of mid-stage cardiac gene expression and to ultimately generate spontaneously contracting patches of cardiac cells, a hallmark of terminal differentiation that is easily observed and quantified. To this end, we treated three-factor transduced MEFs with chemically defined media (CDM) as well as cytokines and small molecules that might enhance cardiogenesis by regulating TGFβ, bone morphogenetic protein (BMP), Hedgehog, Wnt, or Notch pathway activity. Treatments were done individually and in combination, and at different times during the reprogramming process. Despite the general unsuitability of the resulting protocol for iPSC generation, we also explored whether small-molecule inhibition of JAK-STAT (Janus kinase-signal transducer and activator of transcription), PI3K (phosphatidylinositol 3-kinase), or Wnt signalling during the early stages of the protocol might boost the effectiveness of cardiomyogenesis by preventing even a small number of iPSC intermediates from forming. Finally, we experimented with a more gradual transition between different media by lowering FBS concentration step-wise in increments of 1-4% over 3-6 days (immediately prior to switching to CDM). […] During this initial nine-day period, the small-molecule JAK inhibitor JD is continuously kept in the media at a concentration of 0.5 μM. From day nine onwards, the cells are cultured in CDM, with the cardioinductive growth factor BMP4 (Snyder, A. et al., J Cell Biochem 93, 224-32 (2004)) being added at 20 ng/ml for the first five days (FIG. 1b).
All MEFs (129S2/SvPasCrlf) were derived according to WiCell protocols (https://www.wicell.org/index.php?option=com_docman&task=doc_download&gid=687). TTFs were a kind gift of Dr. Hans Schöler. Secondary MEFs were derived as previously described (Wernig, M. et al., Nat Biotechnol 26, 916-24 (2008)). All results were initially obtained and confirmed with the Nebulette-LacZ MEFs; to ensure reproducibility and minimize inter-experimental variation, reported results almost exclusively derive from experiments utilizing secondary dox-inducible MEFs using the optimum induction period. MEFs were initially passaged on gelatin-coated (0.1% for 2 hours at 37° C.) tissue culture dishes in DMEM supplemented with 10% FBS, 2 mM Glutamax and 0.1 mM NEAA (all components from Invitrogen, Carlsbad, Calif.). Prior to viral transduction, cells were seeded onto Matrigel (BD Biosciences, Franklin Lakes, N.J.) or Geltrex (Invitrogen)-coated plates (1:40, overnight at 4° C.) at 3.5×10^4 cells per well of a six well plate (7×10^4 cells for TTFs) in the same media. […]

`C[N+](C)(C)CCOC(N)=O` [carbachol]: in assay [1], the “decay period (τ) of calcium transients” value is “opposite effects” and the “frequency of spontaneous calcium transients” value was “opposite effects”.

On to `CC(C)NCC(O)c1ccc(O)c(O)c1` (stereo not shown) [isoproterenol], for which, in assay [1], the “decay period (τ) of calcium transients” value is “shortened” and the “frequency of spontaneous calcium transients” value was “significantly increased”. Besides, the “cardiac differentiation / percentage of beating colonies” value in the assay on R1 ES cells [2] is recorded as “even more potent cardiac inducing effect than BayK 8644”. Also, in the assay with R1 ES cells [3], the “expression of Brachyury T, Flk-1, GATA-4 and MESP1” value is reported as “increased”.

B1: BMP4: cardioinductive growth factor, member of the TGF-β superfamily (protein, UniProt P12644 293-408, looked up)
Bone morphogenetic protein 4: SPKHHSQRARKKNKNCRRHSLYVDFSDVGWNDWIVAPPGYQAFYCHGDCPFPLADHLNSTNHAIVQTLVNSVNSSIPKACCVPTELSAISMLYLDEYDKVVLKNYQEMVVEGCGCR
Consider B1, for which the optimal concentration with R1 mESCs (first and/or second treatment windows) turned out to be 20 ng/mL. Besides, the “cells staining for αMHC” value in the assay on R1 mESCs (treatment in the first window, day 10) is “approximately 20%”. Also, the “contracting patches per 100,000 MEFs plated (mean)” value in assay [4] (n=6, JI1 0.5 μM first nine days, BMP4 20 ng/ml five days) is 149±13 patches per 100,000 MEFs plated. In addition, in assay [4] (three-factor transduced MEFs, BMP4 20 ng/ml for first five days in CDM), the “increase in formation of contracting patches” value is given as around 150 fold.

Source of the values: patent publication US9556417B2, “Reprogramming of cells to a new fate” (The Scripps Research Institute, priority 2010, dated 2017).
